Laboratory results reported in publication PMC8294803, “A Roadmap to the Structure-Related Metabolism Pathways of Per- and Polyfluoroalkyl Substances in the Early Life Stages of Zebrafish (Danio rerio)” (Environmental Health Perspectives, 2021).
Like-named read-outs stand apart in the source and are kept apart here.

System: zebrafish embryos
[1] = 5μM through 120 hpf, malformation rate

Compound	pericardial oedemata, Mean [1] [%]	spinal curvature, Mean [1] [%]	tail dysplasia, Mean [1] [%]	Mortality (%) (5 µM, exposure through 120 hpf)	Mortality (%) (in vivo)	pericardial oedemata, Mean (in vivo) [%]	spinal curvature, Mean (in vivo) [%]	tail dysplasia, Mean (in vivo) [%]
FC(F)(F)COC(OCC(F)(F)F)OCC(F)(F)F [compound 1, tris(Trifluoroethoxy)methane]	2.22	2.22	2.22	0				
FCOC(C(F)(F)F)C(F)(F)F [compound 3, Sevoflurane, reference compound]	0.00	2.22	0.00	1.1				
O=S(=O)(F)C(F)(F)C(F)(F)C(F)(F)C(F)(F)F [compound 8, Perfluorobutanesulfonyl fluoride]	0.00	1.11	3.33	2.2				
CCN(CCO)S(=O)(=O)C(F)(F)C(F)(F)C(F)(F)C(F)(F)C(F)(F)C(F)(F)C(F)(F)C(F)(F)F [compound 9, N-Ethyl-N-(2-hydroxyethyl)perfluorooctanesulfonamide]	1.11	0.00	0.00	1.1				
OCC(F)(F)C(F)(F)C(F)(F)F [compound 11, Heptafluorobutanol]	4.44	2.22	0.00	1.1				
C=CCOC(F)(C(F)(F)F)C(F)(F)F [compound 18, Allyl perfluoroisopropyl ether]	0.00	0.00	0.00	3.3				
CC=CC(F)(F)C(F)(F)C(F)(F)F [compound 22, 1-Propenylperfluoropropane]	0.00	0.00	0.00	3.3				
C=CC(F)(C(F)(F)F)C(F)(F)C(F)(F)F (stereo not shown) [compound 25, 2-Vinylperfluorobutane]	0.00	0.00	0.00	1.1				
FC(F)(F)COCC(F)(F)F [compound 27, Flurothyl, reference compound]	2.22	0.00	0.00	1.1				
CC(F)(F)CC(F)(F)F [compound 29, 1,1,1,3,3-Pentafluorobutane]	0.00	0.00	0.00	3.3				
NC(O)(C(F)(F)F)C(F)(F)F [compound 33, 2-Aminohexafluoropropan-2-ol]	0.00	0.00	0.00	7.8				
O=C(O)C(F)(OC(F)(F)C(F)(F)C(F)(F)F)C(F)(F)F (stereo not shown) [compound 37, Perfluoro-2-methyl-3-oxahexanoic acid]	2.22	0.00	1.11	1.1				
OCCC(F)(F)C(F)(F)C(F)(F)C(F)(F)F [compound 41, 4:2 Fluorotelomer alcohol]	3.33	0.00	0.00	0				
O=CC(F)(F)C(F)(F)C(F)(F)F [compound 42, Perfluorobutyraldehyde]	2.22	2.22	0.00	0				
O=C(OC(=O)C(F)(F)C(F)(F)F)C(F)(F)C(F)(F)F [compound 43, Pentafluoropropanoic anhydride]	4.44	0.00	4.44	5.6				
COC(F)(F)C(F)(C(F)(F)F)C(F)(F)F [compound 44, Perfluoroisobutyl methyl ether]					1.1	1.11	1.11	0.00
